Experimental data from PubChem BioAssay (NCI).
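Growth conditions: 96-well plates. Treatment: test compound, 48 hours, 5 concentrations. Analysis: linear interpolation between bracketing concentrations; unreached endpoints set to highest concentration. At the TGI there is no net growth.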

How the values were obtained:
Experiment in all cases: DTP human tumour cell line panel, 48 h
786-0 renal = tested on: 786-0 renal
A498 renal = tested on: A498 renal
A549 NSCLC = tested on: A549 NSCLC
ACHN renal = tested on: ACHN renal
CAKI-1 renal = tested on: CAKI-1 renal
CCRF-CEM leukemia = tested on: CCRF-CEM leukemia
COLO 205 colon = tested on: COLO 205 colon
DLD-1 colon = tested on: DLD-1 colon
DMS 114 small cell lung = tested on: DMS 114 small cell lung
DMS 273 small cell lung = tested on: DMS 273 small cell lung
EKVX NSCLC = tested on: EKVX NSCLC
HCC-2998 colon = tested on: HCC-2998 colon
HCT-116 colon = tested on: HCT-116 colon
HCT-15 colon = tested on: HCT-15 colon
HOP-18 NSCLC = tested on: HOP-18 NSCLC
HOP-62 NSCLC = tested on: HOP-62 NSCLC
HOP-92 NSCLC = tested on: HOP-92 NSCLC
HT29 colon = tested on: HT29 colon
IGROV1 ovarian = tested on: IGROV1 ovarian
K-562 leukemia = tested on: K-562 leukemia
KM20L2 colon = tested on: KM20L2 colon
LOX IMVI melanoma = tested on: LOX IMVI melanoma
LXFL 529 NSCLC = tested on: LXFL 529 NSCLC
M14 melanoma = tested on: M14 melanoma
M19-MEL melanoma = tested on: M19-MEL melanoma
MALME-3M melanoma = tested on: MALME-3M melanoma
MOLT-4 leukemia = tested on: MOLT-4 leukemia
NCI-H226 lung = tested on: NCI-H226 lung
NCI-H23 lung = tested on: NCI-H23 lung
NCI-H522 lung = tested on: NCI-H522 lung
OVCAR-3 ovarian = tested on: OVCAR-3 ovarian
OVCAR-4 ovarian = tested on: OVCAR-4 ovarian
OVCAR-5 ovarian = tested on: OVCAR-5 ovarian
OVCAR-8 ovarian = tested on: OVCAR-8 ovarian
RPMI-8226 leukemia = tested on: RPMI-8226 leukemia
RXF 393 renal = tested on: RXF 393 renal
RXF-631 renal = tested on: RXF-631 renal
SF-268 CNS = tested on: SF-268 CNS
SF-295 CNS = tested on: SF-295 CNS
SF-539 CNS = tested on: SF-539 CNS
SK-MEL-2 melanoma = tested on: SK-MEL-2 melanoma
SK-MEL-28 melanoma = tested on: SK-MEL-28 melanoma
SK-MEL-5 melanoma = tested on: SK-MEL-5 melanoma
SK-OV-3 ovarian = tested on: SK-OV-3 ovarian
SN12C renal = tested on: SN12C renal
SNB-19 CNS = tested on: SNB-19 CNS
SNB-75 CNS = tested on: SNB-75 CNS
SNB-78 CNS = tested on: SNB-78 CNS
SR leukemia = tested on: SR leukemia
SW-620 colon = tested on: SW-620 colon
TK-10 renal = tested on: TK-10 renal
U251 CNS = tested on: U251 CNS
UACC-257 melanoma = tested on: UACC-257 melanoma
UACC-62 melanoma = tested on: UACC-62 melanoma
UO-31 renal = tested on: UO-31 renal
HL-60(TB) leukemia = tested on: HL-60(TB) leukemia
KM12 colon = tested on: KM12 colon
NCI-H460 lung = tested on: NCI-H460 lung
XF 498 CNS = tested on: XF 498 CNS

Measured: TGI

N#CCC(=O)N/N=C1/C(=O)NC(=O)C(=O)C1c1nc2ccccc2s1 (stereo not drawn)
> 100 µM: 786-0 renal | A498 renal | A549 NSCLC | ACHN renal | CAKI-1 renal | CCRF-CEM leukemia | COLO 205 colon | DLD-1 colon | DMS 114 small cell lung | DMS 273 small cell lung | EKVX NSCLC | HCC-2998 colon | HCT-116 colon | HCT-15 colon | HOP-18 NSCLC | HOP-62 NSCLC | HOP-92 NSCLC | HT29 colon | IGROV1 ovarian | K-562 leukemia | KM20L2 colon | LOX IMVI melanoma | LXFL 529 NSCLC | M14 melanoma | M19-MEL melanoma | MALME-3M melanoma | MOLT-4 leukemia | NCI-H226 lung | NCI-H23 lung | NCI-H522 lung | OVCAR-3 ovarian | OVCAR-4 ovarian | OVCAR-5 ovarian | OVCAR-8 ovarian | RPMI-8226 leukemia | RXF 393 renal | RXF-631 renal | SF-268 CNS | SF-295 CNS | SF-539 CNS | SK-MEL-2 melanoma | SK-MEL-28 melanoma | SK-MEL-5 melanoma | SK-OV-3 ovarian | SN12C renal | SNB-19 CNS | SNB-75 CNS | SNB-78 CNS | SR leukemia | SW-620 colon | TK-10 renal | U251 CNS | UACC-257 melanoma | UACC-62 melanoma | UO-31 renal

NC12CC3CC(C1)CC(Cl)(C3)C2
> 100 µM: 786-0 renal | A498 renal | A549 NSCLC | ACHN renal | CCRF-CEM leukemia | COLO 205 colon | DLD-1 colon | DMS 114 small cell lung | DMS 273 small cell lung | EKVX NSCLC | HCC-2998 colon | HCT-116 colon | HL-60(TB) leukemia | HOP-62 NSCLC | HOP-92 NSCLC | HT29 colon | IGROV1 ovarian | K-562 leukemia | KM12 colon | KM20L2 colon | LOX IMVI melanoma | LXFL 529 NSCLC | M14 melanoma | M19-MEL melanoma | MALME-3M melanoma | MOLT-4 leukemia | NCI-H23 lung | NCI-H460 lung | NCI-H522 lung | OVCAR-3 ovarian | OVCAR-5 ovarian | OVCAR-8 ovarian | RPMI-8226 leukemia | RXF 393 renal | RXF-631 renal | SF-539 CNS | SK-MEL-2 melanoma | SK-MEL-28 melanoma | SK-OV-3 ovarian | SNB-75 CNS | SNB-78 CNS | SW-620 colon | TK-10 renal | U251 CNS | UACC-257 melanoma | UACC-62 melanoma | UO-31 renal | XF 498 CNS
